Data reported in patent EP4678638A1, “NEW E3 UBIQUITIN LIGASE LIGAND, PROTEIN DEGRADATION AGENT AND USE THEREOF” (priority 2023, dated 2024).

Key:
[1] = molecular target: T1, human Cereblon WT GST-tagged protein (Homo sapiens, UniProt Q96SW2); test: CRBN binding, HTRF (CEREBLON BINDING kit); details: Table II-2, CRBN binding screening, HTRF; for inhibition at 0.5 µM: read-out: Inhibition rate (%) at 0.5µM; for inhibition at 2 µM: read-out: Inhibition rate (%) at 2 µM
T1 construct: purchased CISBIO 64BDCRBNPEH
Outline: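 Competitive HTRF: GST-tagged human WT Cereblon mixed with compound, Thalidomide-Re tracer and GST Eu antibody, incubated 3 h at room temperature. Signals read at 620 and 665 nm.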

RSK1 = molecular target: T2, RSK1 (Homo sapiens, UniProt Q15418); test: Western blot degradation of RSK1 (hPBMC); format: cell-based; details: Table D8
T2 construct: evaluate the effects of the compounds of the present disclosure on the expression of target proteins in cells; endogenous in cells; host or cells: hPBMC
Outline: (§1)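 After compound exposure, cells were harvested and lysates run on SDS-PAGE, transferred to nitrocellulose and probed with antibodies. Remaining target (%) was computed from band grayscale relative to an internal control protein and normalised; degradation (%) was 100% minus that.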

RSK2 = molecular target: T3, RSK2 (Homo sapiens, UniProt P51812); test: Western blot degradation of RSK2 (hPBMC); format: cell-based; details: Table D8
T3 construct: evaluate the effects of the compounds of the present disclosure on the expression of target proteins in cells; endogenous in cells; host or cells: hPBMC
Outline: as §1

T3 sequence (P51812 whole entry): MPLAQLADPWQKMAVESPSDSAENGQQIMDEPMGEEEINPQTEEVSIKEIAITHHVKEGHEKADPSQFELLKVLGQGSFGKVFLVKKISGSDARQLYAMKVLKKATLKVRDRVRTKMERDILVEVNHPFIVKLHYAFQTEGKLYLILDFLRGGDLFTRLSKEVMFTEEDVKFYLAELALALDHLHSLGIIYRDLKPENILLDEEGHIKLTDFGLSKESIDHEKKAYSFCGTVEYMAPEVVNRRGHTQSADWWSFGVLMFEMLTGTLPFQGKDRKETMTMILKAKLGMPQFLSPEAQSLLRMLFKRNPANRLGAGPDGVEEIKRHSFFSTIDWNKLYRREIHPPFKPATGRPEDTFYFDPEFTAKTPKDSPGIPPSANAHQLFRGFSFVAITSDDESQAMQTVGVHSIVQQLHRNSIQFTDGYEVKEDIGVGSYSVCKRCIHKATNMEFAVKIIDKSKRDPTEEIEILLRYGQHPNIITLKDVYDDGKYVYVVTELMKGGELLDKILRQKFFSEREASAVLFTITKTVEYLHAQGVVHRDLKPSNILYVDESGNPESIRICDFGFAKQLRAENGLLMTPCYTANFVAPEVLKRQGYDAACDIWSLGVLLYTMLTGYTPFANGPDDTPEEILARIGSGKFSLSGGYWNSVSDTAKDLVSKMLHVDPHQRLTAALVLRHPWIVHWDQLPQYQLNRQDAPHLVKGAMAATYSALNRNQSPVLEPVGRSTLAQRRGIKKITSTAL
T1 sequence (Q96SW2 whole entry): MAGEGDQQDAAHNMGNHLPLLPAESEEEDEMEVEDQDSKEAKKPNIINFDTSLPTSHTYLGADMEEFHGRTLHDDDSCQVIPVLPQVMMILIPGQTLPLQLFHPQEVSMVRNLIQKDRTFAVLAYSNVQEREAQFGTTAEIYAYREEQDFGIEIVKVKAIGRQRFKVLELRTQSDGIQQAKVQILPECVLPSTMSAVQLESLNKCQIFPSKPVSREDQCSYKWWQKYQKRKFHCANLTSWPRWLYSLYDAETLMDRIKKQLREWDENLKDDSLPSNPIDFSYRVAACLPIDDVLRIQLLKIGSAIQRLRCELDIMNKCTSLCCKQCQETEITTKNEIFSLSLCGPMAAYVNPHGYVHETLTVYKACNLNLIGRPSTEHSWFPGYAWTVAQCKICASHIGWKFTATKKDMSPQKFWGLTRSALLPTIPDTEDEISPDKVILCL
T2 sequence (Q15418 whole entry): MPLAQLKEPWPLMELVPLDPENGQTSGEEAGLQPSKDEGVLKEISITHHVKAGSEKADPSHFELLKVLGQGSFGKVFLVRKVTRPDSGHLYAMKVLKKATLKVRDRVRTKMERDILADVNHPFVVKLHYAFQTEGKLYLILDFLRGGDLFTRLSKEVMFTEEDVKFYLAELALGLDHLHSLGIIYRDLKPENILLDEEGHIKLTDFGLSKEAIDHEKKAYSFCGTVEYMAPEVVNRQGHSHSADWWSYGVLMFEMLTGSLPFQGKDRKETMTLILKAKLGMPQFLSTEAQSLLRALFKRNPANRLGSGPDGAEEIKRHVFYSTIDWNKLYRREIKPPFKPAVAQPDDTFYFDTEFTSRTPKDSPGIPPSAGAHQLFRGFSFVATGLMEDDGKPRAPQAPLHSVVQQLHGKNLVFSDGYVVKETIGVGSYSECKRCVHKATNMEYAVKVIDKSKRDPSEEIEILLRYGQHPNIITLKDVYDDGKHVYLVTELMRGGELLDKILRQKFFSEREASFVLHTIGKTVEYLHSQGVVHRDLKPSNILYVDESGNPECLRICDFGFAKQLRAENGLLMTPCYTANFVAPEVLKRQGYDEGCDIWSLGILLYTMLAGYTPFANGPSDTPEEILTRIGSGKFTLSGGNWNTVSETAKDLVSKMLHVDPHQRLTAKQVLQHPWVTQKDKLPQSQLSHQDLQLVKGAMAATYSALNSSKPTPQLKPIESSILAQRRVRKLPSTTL

inhibition at 0.5 µM [1] [%] | inhibition at 2 µM [1] [%] | SMILES | Degradation of substrate protein RSK1 (substrate protein remaining %) (RSK1) | Degradation of substrate protein RSK2 (substrate protein remaining %) (RSK2)
60 to 80 | 80 to 100 | C[C@@H]1CNC(=O)c2cc3ccc(C(=O)Nc4cnn(Cc5ccc(N6CCC(N7CCN(Cc8ccc(N9CCC(=O)NC9=O)cn8)CC7)CC6)cc5)c4)nc3n21 [GT-07954, (R)-N-(1-(4-(4-(4-((5-(2,4-dioxotetrahydropyrimidin-1(2H)-yl)pyridin-2-yl)methyl)piperazin-1-yl)piperidin-1-yl)benzyl)-1H-pyrazol-4-yl)-9-methyl-6-oxo-6,7,8,9-tetrahydropyrido[3',2':4,5]pyrrolo[1,2-a]pyrazine-2-carboxamide] | A (A is defined as 0% ≤ substrate protein remaining % ≤ 80%) | A (A is defined as 0% ≤ substrate protein remaining % ≤ 80%)
20 to 30 | 53 to 60 | C[C@@H]1CNC(=O)c2cc3ccc(C(=O)Nc4cnn(Cc5ccc(N6CCC(N7CCN(Cc8cccc(N9CCC(=O)NC9=O)c8)CC7)CC6)cc5)c4)nc3n21 [GT-07953, (R)-N-(1-(4-(4-(4-(3-(2,4-dioxotetrahydropyrimidin-1(2H)-yl)benzyl)piperazin-1-yl)piperidin-1-yl)benzyl)-1H-pyrazol-4-yl)-9-methyl-6-oxo-6,7,8,9-tetrahydropyrido[3',2':4,5]pyrrolo[1,2-a]pyrazine-2-carboxamide] | A (A is defined as 0% ≤ substrate protein remaining % ≤ 80%) | A (A is defined as 0% ≤ substrate protein remaining % ≤ 80%)
30 to 40 | 40 to 53 | C[C@@H]1CNC(=O)c2cc3ccc(C(=O)Nc4cnn(Cc5ccc(NCc6ccnc(N7CCC(=O)NC7=O)c6)cc5)c4)nc3n21 [GT-07795, (R)-N-(1-(4-(((2-(2,4-dioxotetrahydropyrimidin-1(2H)-yl)pyridin-4-yl)methyl)amino)benzyl)-1H-pyrazol-4-yl)-9-methyl-6-oxo-6,7,8,9-tetrahydropyrido[3',2':4,5]pyrrolo[1,2-a]pyrazine-2-carboxamide] | A (A is defined as 0% ≤ substrate protein remaining % ≤ 80%) | B (B is defined as substrate protein remaining % > 80%)
60 to 80 | 80 to 100 | C[C@@H]1CNC(=O)c2cc3ccc(C(=O)Nc4cnn(Cc5ccc(N6CCN(Cc7ccc(C8CCC(=O)NC8=O)cc7)CC6)cc5)c4)nc3n21 (stereo partly drawn) [GT-07926, (9R)-N-(1-(4-(4-(4-(2,6-dioxopiperidin-3-yl)benzyl)piperazin-1-yl)benzyl)-1H-pyrazol-4-yl)-9-methyl-6-oxo-6,7,8,9-tetrahydropyrido[3',2':4,5]pyrrolo[1,2-a]pyrazine-2-carboxamide] | A (A is defined as 0% ≤ substrate protein remaining % ≤ 80%) | B (B is defined as substrate protein remaining % > 80%)
20 to 30 | 60 to 80 | C[C@@H]1CNC(=O)c2cc3ccc(C(=O)Nc4cnn(Cc5ccc(N6CCC(N7CCN(Cc8cncc(C9CCC(=O)NC9=O)c8)CC7)CC6)cc5)c4)nc3n21 (stereo partly drawn) [GT-07961, (9R)-N-(1-(4-(4-(4-((5-(2,6-dioxopiperidin-3-yl)pyridin-3-yl)methyl)piperazin-1-yl)piperidin-1-yl)benzyl)-1H-pyrazol-4-yl)-9-methyl-6-oxo-6,7,8,9-tetrahydropyrido[3',2':4,5]pyrrolo[1,2-a]pyrazine-2-carboxamide] | A (A is defined as 0% ≤ substrate protein remaining % ≤ 80%) | A (A is defined as 0% ≤ substrate protein remaining % ≤ 80%)
30 to 40 | 60 to 80 | C[C@@H]1CNC(=O)c2cc3ccc(C(=O)Nc4cnn(Cc5ccc(N6CCC(N(C)Cc7cc(C8CCC(=O)NC8=O)cnc7F)CC6)cc5)c4)nc3n21 (stereo partly drawn) [GT-07946, (9R)-N-(1-(4-(4-(((5-(2,6-dioxopiperidin-3-yl)-2-fluoropyridin-3-yl)methyl)(methyl)amino)piperidin-1-yl)benzyl)-1H-pyrazol-4-yl)-9-methyl-6-oxo-6,7,8,9-tetrahydropyrido[3',2':4,5]py rrolo[1,2-a]pyrazine-2-carboxamide] | A (A is defined as 0% ≤ substrate protein remaining % ≤ 80%) | A (A is defined as 0% ≤ substrate protein remaining % ≤ 80%)
80 to 100 | 80 to 100 | C[C@@H]1CNC(=O)c2cc3ccc(C(=O)Nc4cnn(Cc5ccc(NCc6cncc(N7CCC(=O)NC7=O)c6)cc5)c4)nc3n21 [GT-07796, (R)-N-(1-(4-(((5-(2,4-dioxotetrahydropyrimidin-1(2H)-yl)pyridin-3-yl)methyl)amino)benzyl)-1H-pyrazol-4-yl)-9-methyl-6-oxo-6,7,8,9-tetrahydropyrido[3',2':4,5]pyrrolo[1,2-a]pyrazine-2-carboxamide] | A (A is defined as 0% ≤ substrate protein remaining % ≤ 80%) | B (B is defined as substrate protein remaining % > 80%)
20 to 30 | 53 to 60 | C[C@@H]1CNC(=O)c2cc3ccc(C(=O)Nc4cnn(Cc5ccc(N6CCC(N7CCN(Cc8cc(N9CCC(=O)NC9=O)cnc8F)CC7)CC6)cc5)c4)nc3n21 [GT-07962, (R)-N-(1-(4-(4-(4-((5-(2,4-dioxotetrahydropyrimidin-1(2H)-yl)-2-fluoropyridin-3-yl)methyl)piperazin-1-yl)piperidin-1-yl)benzyl)-1H-pyrazol-4-yl)-9-methyl-6-oxo-6,7,8,9-tetrahydropyrido[3',2':4,5]pyrrolo[1,2-a]pyrazine-2-carboxamide] | A (A is defined as 0% ≤ substrate protein remaining % ≤ 80%) | A (A is defined as 0% ≤ substrate protein remaining % ≤ 80%)
